# Values quoted from earlier work as cited in US10201584B1, “Compositions and methods for treating HCV” (AbbVie Inc., priority 2011, dated 2019).
# Test system: HCV
# Conditions: hepatitis C patients; background statement
smiles,measurement,value
NC(=O)c1ncn([C@@H]2O[C@H](CO)[C@@H](O)[C@H]2O)n1 [ribavirin],suppression of HCV levels / effectiveness of regimen,does not effectively suppress HCV levels
